{
  "source": "patent EP0174571A2",
  "about": "“Derivatives of amino acids, process for their preparation and pharmaceutical compositions” (BOEHRINGER INGELHEIM KG, priority 1984, dated 1986)",
  "key": {"narkotisierten Ratte": {"system": "narkotisierten Ratte", "test": "Blood pressure lowering in the anaesthetised rat after angiotensin I pressor stimulus", "format": "in vivo", "conditions": "0,3 mg/kg i.v.; blood pressure raised beforehand with 0,1 mg/kg Angiotensin I i.v.; long lasting", "protocol": "So erzeugt das N-[N-(3-Phenyl-2-S-mercaptopropanoyl)-S-alanyl]-S-prolin an der narkotisierten Ratte in einer Dosierung von 0,3 mg/kg i.v. eine lang anhaltende Blutdrucksenkung von 67 %, wenn man vorher durch eine i.v.-Gabe von 0,1 mg/kg Angiotensin I den Blutdruck steigert."}, "Kaninchen": {"system": "Kaninchen", "test": "Blood pressure test in the rabbit (carotid artery)", "format": "in vivo", "conditions": "1 mg/kg i.v.; blood pressure from the carotid", "protocol": "Am Kaninchen (Blutdruckversuch aus der Carotis) wird nach Gabe von 1 mg/kg der Substanz, i.v., eine Blutdrucksenkung von 37 mm beobachtet."}},
  "data": [
    {"compound": "CC(NC(=O)C(S)Cc1ccccc1)C(=O)N1CCCC1C(=O)O", "note": "(centres unmarked) [Beispiel 1, N-[N-(3-Phenyl-2-S-mercatopropanoyl)-S-alanyl]-S-prolin]", "values": [
      {"measurement": "Blutdrucksenkung", "setting": "narkotisierten Ratte", "result": 67, "unit": "%"},
      {"measurement": "Blutdrucksenkung", "setting": "Kaninchen", "result": 37, "unit": "mm"}
    ]}
  ]
}
